{"source": "ChEMBL document CHEMBL1138909", "about": "“Structure-activity studies of oxazolidinone analogs as RNA-binding agents” (Bioorg Med Chem Lett, 2006)", "type_in_all_cases": "nucleic-acid assay", "key": {"Nucleic Acid [1]": {"test_system": "Nucleic Acid", "experiment": "Binding activity at antiterminator RNA AM1A relative to methyl 2-((4R,5S)-4-benzyl-2-oxo-5-((2-phenylacetoxy)methyl)oxazolidin-3-yl)benzoate after 10 mins"}, "Nucleic Acid [2]": {"test_system": "Nucleic Acid", "experiment": "Binding activity at antiterminator RNA AM1A(C11U) after 10 mins"}, "Nucleic Acid [3]": {"target": "Nucleic Acid", "experiment": "Binding activity at antiterminator RNA AM1A after 10 mins"}, "Nucleic Acid [4]": {"target": "Nucleic Acid", "experiment": "Binding activity at antiterminator RNA AM1A(C11U) after 120 mins"}, "Nucleic Acid [5]": {"test_system": "Nucleic Acid", "experiment": "Binding activity at antiterminator RNA AM1A upto 200 uM after 10 mins"}, "Nucleic Acid [6]": {"test_system": "Nucleic Acid", "experiment": "Binding activity at antiterminator RNA AM1A(C11U) upto 200 uM after 10 mins"}}, "note": "The source made the active and inactive calls. The calls are words filed in the database; no cut-off is given here.", "data": [{"compound": "COc1ccc(N2C(=O)O[C@H](COC(=O)Cc3ccccc3)[C@H]2CC2CCCCC2)cc1", "values": [{"measurement": "Activity", "setting": "Nucleic Acid [1]", "value": 0.71}, {"measurement": "Activity", "setting": "Nucleic Acid [2]", "value": 1.05}]}, {"compound": "CCCCCCCC(=O)OC[C@H]1OC(=O)N(c2ccc(OC)cc2)[C@@H]1CCCc1ccccc1", "values": [{"measurement": "Activity", "setting": "Nucleic Acid [1]", "value": 0.65}, {"measurement": "Activity", "setting": "Nucleic Acid [2]", "value": 0.72}]}, {"compound": "COc1ccc(N2C(=O)O[C@H](COC(=O)C3CCCCC3)[C@H]2CC2CCCCC2)cc1", "values": [{"measurement": "Activity", "setting": "Nucleic Acid [1]", "value": 0.61}, {"measurement": "Activity", "setting": "Nucleic Acid [2]", "value": 0.82}]}, {"compound": "COc1ccc(N2C(=O)O[C@H](COC(=O)C3CCCCC3)[C@H]2Cc2ccccc2)cc1", "values": [{"measurement": "Activity", "setting": "Nucleic Acid [1]", "value": 0.73}, {"measurement": "Activity", "setting": "Nucleic Acid [2]", "value": 0.77}]}, {"compound": "CCCCN1C(=O)O[C@H](COC(=O)C2CCCCC2)[C@H]1CCCc1ccccc1", "values": [{"measurement": "Activity", "setting": "Nucleic Acid [1]", "value": 0.65}, {"measurement": "Activity", "setting": "Nucleic Acid [2]", "value": 0.78}]}, {"compound": "CCCCN1C(=O)O[C@H](COC(=O)Cc2ccccc2)[C@H]1Cc1ccccc1", "values": [{"measurement": "Activity", "setting": "Nucleic Acid [1]", "value": 0.48}, {"measurement": "Activity", "setting": "Nucleic Acid [2]", "value": 0.36}]}, {"compound": "CCCCCCCC(=O)OC[C@H]1OC(=O)N(c2ccc(OC)cc2)[C@@H]1Cc1ccccc1", "values": [{"measurement": "Activity", "setting": "Nucleic Acid [1]", "value": 0.43}, {"measurement": "Activity", "setting": "Nucleic Acid [2]", "value": 0.68}]}, {"compound": "CCCCCCC(=O)OC[C@H]1OC(=O)N[C@@H]1Cc1ccccc1", "values": [{"measurement": "Kd", "setting": "Nucleic Acid [3]", "value": 10, "unit": "µM"}, {"measurement": "Kd", "setting": "Nucleic Acid [4]", "value": 14.3, "unit": "µM"}]}, {"compound": "CCCCCCCC(=O)OC[C@H]1OC(=O)N[C@@H]1Cc1ccccc1", "values": [{"measurement": "Activity", "setting": "Nucleic Acid [5]", "value": "inactive"}, {"measurement": "Activity", "setting": "Nucleic Acid [6]", "value": "inactive"}]}, {"compound": "COc1ccc(N2C(=O)O[C@H](COC(=O)Cc3ccccc3)[C@H]2CCCc2ccccc2)cc1", "values": [{"measurement": "Activity", "setting": "Nucleic Acid [1]", "value": 0.75}]}, {"compound": "CCCCCCCC(=O)OC[C@H]1OC(=O)N(c2ccccc2C(=O)OC)[C@@H]1CC1CCCCC1", "values": [{"measurement": "Activity", "setting": "Nucleic Acid [1]", "value": 0.47}, {"measurement": "Activity", "setting": "Nucleic Acid [2]", "value": 0.97}]}, {"compound": "COc1ccc(N2C(=O)O[C@H](COC(=O)Cc3ccccc3)[C@H]2Cc2ccccc2)cc1", "values": [{"measurement": "Kd", "setting": "Nucleic Acid [3]", "value": 3.4, "unit": "µM"}, {"measurement": "Activity", "setting": "Nucleic Acid [1]", "value": 0.81}, {"measurement": "Activity", "setting": "Nucleic Acid [2]", "value": 0.23}, {"measurement": "Kd", "setting": "Nucleic Acid [2]", "value": 25, "unit": "µM"}]}, {"compound": "CCCCN1C(=O)O[C@H](COC(=O)C2CCCCC2)[C@H]1CC1CCCCC1", "values": [{"measurement": "Activity", "setting": "Nucleic Acid [1]", "value": 0.54}, {"measurement": "Activity", "setting": "Nucleic Acid [2]", "value": 0.7}]}, {"compound": "COC(=O)c1ccccc1N1C(=O)O[C@H](COC(=O)C2CCCCC2)[C@H]1Cc1ccccc1", "values": [{"measurement": "Activity", "setting": "Nucleic Acid [1]", "value": 0.64}, {"measurement": "Activity", "setting": "Nucleic Acid [2]", "value": 1.19}]}, {"compound": "CCCCCCCC(=O)OC[C@H]1OC(=O)N(CCCC)[C@@H]1CC1CCCCC1", "values": [{"measurement": "Activity", "setting": "Nucleic Acid [1]", "value": 0.73}, {"measurement": "Activity", "setting": "Nucleic Acid [2]", "value": 1.05}]}, {"compound": "COc1ccc(N2C(=O)O[C@H](COC(=O)C3CCCCC3)[C@H]2CCCc2ccccc2)cc1", "values": [{"measurement": "Activity", "setting": "Nucleic Acid [1]", "value": 0.64}, {"measurement": "Activity", "setting": "Nucleic Acid [2]", "value": 0.7}]}, {"compound": "COC(=O)c1ccccc1N1C(=O)O[C@H](COC(=O)Cc2ccccc2)[C@H]1CCCc1ccccc1", "values": [{"measurement": "Activity", "setting": "Nucleic Acid [1]", "value": 0.79}, {"measurement": "Activity", "setting": "Nucleic Acid [2]", "value": 1.12}]}, {"compound": "CCCCCCCC(=O)OC[C@H]1OC(=O)N(c2ccccc2C(=O)OC)[C@@H]1CCCc1ccccc1", "values": [{"measurement": "Activity", "setting": "Nucleic Acid [1]", "value": 1.21}, {"measurement": "Activity", "setting": "Nucleic Acid [2]", "value": 0.76}]}, {"compound": "COC(=O)c1ccccc1N1C(=O)O[C@H](COC(=O)Cc2ccccc2)[C@H]1CC1CCCCC1", "values": [{"measurement": "Activity", "setting": "Nucleic Acid [1]", "value": 0.39}, {"measurement": "Activity", "setting": "Nucleic Acid [2]", "value": 0.77}]}, {"compound": "CCCCN1C(=O)O[C@H](COC(=O)C2CCCCC2)[C@H]1Cc1ccccc1", "values": [{"measurement": "Activity", "setting": "Nucleic Acid [1]", "value": 0.48}, {"measurement": "Activity", "setting": "Nucleic Acid [2]", "value": 0.59}]}, {"compound": "O=C(Cc1ccccc1)OC[C@H]1OC(=O)N[C@@H]1Cc1ccccc1", "values": [{"measurement": "Kd", "setting": "Nucleic Acid [3]", "value": 9, "unit": "µM"}, {"measurement": "Kd", "setting": "Nucleic Acid [2]", "value": 125, "unit": "µM"}]}, {"compound": "CCCCCCCC(=O)OC[C@H]1OC(=O)N(c2ccc(OC)cc2)[C@@H]1CC1CCCCC1", "values": [{"measurement": "Activity", "setting": "Nucleic Acid [1]", "value": 0.58}, {"measurement": "Activity", "setting": "Nucleic Acid [2]", "value": 0.78}]}, {"compound": "COC(=O)c1ccccc1N1C(=O)O[C@H](COC(=O)C2CCCCC2)[C@H]1CCCc1ccccc1", "values": [{"measurement": "Activity", "setting": "Nucleic Acid [1]", "value": 0.71}, {"measurement": "Activity", "setting": "Nucleic Acid [2]", "value": 0.78}]}, {"compound": "CCCCN1C(=O)O[C@H](COC(=O)Cc2ccccc2)[C@H]1CCCc1ccccc1", "values": [{"measurement": "Activity", "setting": "Nucleic Acid [1]", "value": 0.72}, {"measurement": "Activity", "setting": "Nucleic Acid [2]", "value": 0.7}]}, {"compound": "CCCCN1C(=O)O[C@H](COC(=O)Cc2ccccc2)[C@H]1CC1CCCCC1", "values": [{"measurement": "Activity", "setting": "Nucleic Acid [1]", "value": 0.58}, {"measurement": "Activity", "setting": "Nucleic Acid [2]", "value": 0.78}]}, {"compound": "CCCCCCCC(=O)OC[C@H]1OC(=O)N(c2ccccc2C(=O)OC)[C@@H]1Cc1ccccc1", "values": [{"measurement": "Activity", "setting": "Nucleic Acid [1]", "value": 1.19}, {"measurement": "Activity", "setting": "Nucleic Acid [2]", "value": 1.06}]}, {"compound": "CCCCCCCC(=O)OC[C@H]1OC(=O)N(CCCC)[C@@H]1Cc1ccccc1", "values": [{"measurement": "Activity", "setting": "Nucleic Acid [1]", "value": 1.16}, {"measurement": "Activity", "setting": "Nucleic Acid [2]", "value": 1.37}]}, {"compound": "COC(=O)c1ccccc1N1C(=O)O[C@H](COC(=O)Cc2ccccc2)[C@H]1Cc1ccccc1", "values": [{"measurement": "Activity", "setting": "Nucleic Acid [3]", "value": 1}, {"measurement": "Activity", "setting": "Nucleic Acid [2]", "value": 1.47}]}, {"compound": "COC(=O)c1ccccc1N1C(=O)O[C@H](COC(=O)C2CCCCC2)[C@H]1CC1CCCCC1", "values": [{"measurement": "Activity", "setting": "Nucleic Acid [1]", "value": 0.61}, {"measurement": "Activity", "setting": "Nucleic Acid [2]", "value": 0.8}]}, {"compound": "CCCCCCCC(=O)OC[C@H]1OC(=O)N(CCCC)[C@@H]1CCCc1ccccc1", "values": [{"measurement": "Activity", "setting": "Nucleic Acid [1]", "value": 0.56}, {"measurement": "Activity", "setting": "Nucleic Acid [2]", "value": 0.69}]}]}
